Source: patent EP1115693B9, “SUBSTITUTED POLYCYCLIC ARYL AND HETEROARYL $i([sequence])-HETEROALKYLAMINES USEFUL FOR INHIBITING CHOLESTERYL ESTER [sequence] PROTEIN ACTIVITY” (Monsanto Company, priority 1998, dated 2000)

Key:
CETP [1] = target: T1, CETP (Homo sapiens, UniProt P11597); experiment: Assay of CETP inhibition in human plasma: transfer of [3H]CE from [3H]CE-HDL to VLDL and LDL; format: biochemical; design: Blood was obtained from healthy volunteers; from tissue; host or cells: pooled human EDTA plasma from healthy volunteers; settings: inhibition of transfer of [3H]CE from [3H]CE-HDL to VLDL and LDL
T1 sequence (P11597 18-493): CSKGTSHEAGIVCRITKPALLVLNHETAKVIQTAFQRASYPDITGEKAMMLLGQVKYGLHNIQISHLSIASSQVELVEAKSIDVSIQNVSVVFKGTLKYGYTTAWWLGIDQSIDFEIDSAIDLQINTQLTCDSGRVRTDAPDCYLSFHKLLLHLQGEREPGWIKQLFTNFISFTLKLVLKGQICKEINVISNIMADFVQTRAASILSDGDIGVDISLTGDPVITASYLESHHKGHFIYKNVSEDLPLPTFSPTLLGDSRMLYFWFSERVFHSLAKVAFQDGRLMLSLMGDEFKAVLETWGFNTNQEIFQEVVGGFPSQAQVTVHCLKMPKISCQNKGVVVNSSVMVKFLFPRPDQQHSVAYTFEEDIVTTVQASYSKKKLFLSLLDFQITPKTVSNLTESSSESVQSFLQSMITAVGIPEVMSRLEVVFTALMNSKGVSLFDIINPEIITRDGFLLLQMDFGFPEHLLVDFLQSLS
Description: ASSAY OF CETP INHIBITION IN HUMAN PLASMA
Blood was obtained from healthy volunteers, recruited from the personnel of Monsanto Company, Saint Louis, MO. Blood was collected in tubes containing EDTA (EDTA plasma pool). The EDTA human plasma pool, previously stored at -20 °C, was thawed at room temperature and centrifuged for 5 minutes to remove any particulate matter. […] Equal volumes (396 µL) of the plasma containing the [^3H]CE-HDL were added by pipette into micro tubes (Titertube®, Bio-Rad laboratories, Hercules, CA). Inhibitor compounds, dissolved as 20-50 mM stock solutions in DMSO, were serially diluted in DMSO (or an alternative solvent in some cases, such as dimethylformamide or ethanol). Four µL of each of the serial dilutions of inhibitor compounds or DMSO alone were then added to each of the tubes containing plasma (396 µL). After mixing, triplicate aliquots (100 µL) from each plasma tube were then transferred to wells of 96-well roundbottomed polystyrene microtiter plates (Corning, Corning, NY). Plates were sealed with plastic film and incubated at 37 °C for 4 hours. "Test" samples contained plasma with dilutions of inhibitor compounds. "Control" samples contained plasma with DMSO diluted to the same concentration as the test samples, but without inhibitor. "Blank" samples were prepared as "control" samples, but were left in the micro tubes at 4 °C for the 4 hour incubation and were then added to the microtiter wells at the end of the incubation period. VLDL and LDL were precipitated by the addition of 10 µL of precipitating reagent (1% (w/v) dextran sulfate (Dextralip50)/0.5 M magnesium chloride, pH 7.4) to all wells. The wells were mixed on a plate mixer and then incubated at ambient temperature for 10 min. The plates were then centrifuged at 1000 x g for 30 min at 10 °C. The supernatants (50 µL) from each well were then transferred to Picoplate™ 96 plate wells (Packard, Meriden. CT) containing Microscint™-40 (Packard, Meriden, CT). The plates were heat-sealed (TopSeal™-P, Packard, Meriden, CT) according to the manufacturer's directions and mixed for 30 min. Radioactivity was measured on a microplate scintillation counter (TopCount. Packard, Meriden, CT). The maximum percentage transfer in the control wells (% transfer) was determined using the following equation: % Transfer = ([dpmblank -dpmcontrol ] × 100)/(dpmblank) [formula]
The percentage of transfer relative to the control (% control) was determined in the wells containing inhibitor compounds was determined as follows: % Control = ([dpmblank -dpmtest ] × 100)/(dpmblank -dpmcontrol) [formula]
IC50 values were then calculated from plots of % control versus concentration of inhibitor compound. […]

CETP [2] = target: T1, CETP; experiment: Assay of CETP inhibition using purified components (reconstituted buffer assay): transfer of [3H]CE from HDL to LDL; format: biochemical; design: made in house; host or cells: CHO cells (serum-free conditioned medium); settings: 2 hours at 37°C
Description: ASSAY OF CETP INHIBITION USING PURIFIED COMPONENTS (RECONSTITUTED BUFFER ASSAY)
The ability of compounds to inhibit CETP activity was assessed using an in vitro assay that measured the rate of transfer of radiolabeled cholesteryl ester ([^3H]CE) from HDL donor particles to LDL acceptor particles. Details of the assay are provided by Glenn, K. C. et al. (Glenn and Melton, "Quantification of Cholesteryl Ester Transfer Protein (CETP): A) CETP Activity and B) Immunochemical Assay of CETP Protein," Meth. Enzymol., 263, 339-351 (1996)). Human recombinant CETP can be obtained from the serum-free conditioned medium of CHO cells transfected with a cDNA for CETP and purified as described by Wang, S. et al. (J. Biol. Chem. 267, 17487-17490 (1992)). To measure CETP activity, [^3H]CE-labeled-HDL, LDL, CETP and assay buffer (50 mM tris(hydroxymethyl)aminomethane, pH 7.4; 150 mM sodium chloride; 2 mM ethylenediamine-tetraacetic acid (EDTA); 1% bovine serum albumin) were incubated in a final volume of 200 µL, for 2 hours at 37°C in 96 well plates. […] The inhibitors were then diluted 1:1 with CETP in assay buffer, and then 25 µL of that solution was mixed with 175 µL of lipoprotein pool for assay. Following incubation, LDL was differentially precipitated by the addition of 50 µL of 1% (w/v) dextran sulfate/0.5 M magnesium chloride, mixed by vortex, and incubated at room temperature for 10 minutes. A potion of the solution (200 µL) was transferred to a filter plate (Millipore). After filtration, the radioactivity present in the precipitated LDL was measured by liquid scintillation counting.
This value was defined as the IC50.

Row | IC50 (CETP [1]) | IC50 (CETP [2]) | SMILES
1 | > 100 µM |  | OC(CN(Cc1ccc(Cl)s1)c1cccc(OC(F)(F)F)c1)C(F)(F)F (centres unmarked) [Example 321, 3-[[(5-chloro-2-thienyl)methyl][(3-trifluoromethoxy)phenyl]amino]-1,1,1-trifluoro-2-propanol]
2 | 100 µM |  | OC(CN(Cc1ccc(OC(F)(F)F)cc1)c1ccccc1)C(F)(F)F (centres unmarked) [compound 59]
3 | 120 µM | 5.5 µM | OC(CN(Cc1ccc(OC(F)(F)F)cc1)c1cccc(OC(F)(F)F)c1)C(F)(F)F (centres unmarked) [compound 60]
4 | 100 µM |  | OC(CN(Cc1cccc(OC(F)(F)F)c1)c1ccccc1)C(F)(F)F (centres unmarked) [compound 73]
5 | 12 µM | 0.84 µM | Cc1ccc(Oc2cccc(N(Cc3cccc(OC(F)(F)C(F)F)c3)CC(O)C(F)(F)F)c2)cn1 (centres unmarked) [compound 282]
6 | > 100 µM | 3.1 µM | OC(CN(Cc1cccc(OC(F)(F)C(F)F)c1)c1cccc(N2CCC(Cc3ccccc3)CC2)c1)C(F)(F)F (centres unmarked) [compound 316]
7 | > 100 µM | 3.4 µM | OC(CN(Cc1cccc(OC(F)(F)C(F)F)c1)c1cccc(N2CCC3(CC2)OCCO3)c1)C(F)(F)F (centres unmarked) [compound 317]
8 | > 100 µM | 7.7 µM | OC(CN(Cc1ccc(Cl)s1)c1cccc(OC(F)(F)F)c1)C(F)(F)F (centres unmarked) [compound 346]
9 | 12 µM | 0.22 µM | OC(CN(Cc1cccc(OC(F)(F)C(F)F)c1)c1cccc(OCc2ccccc2)c1)C(F)(F)F (centres unmarked) [compound 373]
10 | 8 µM | 0.47 µM | Cc1ccc(Oc2cccc(N(Cc3cccc(SC(F)(F)F)c3)CC(O)C(F)(F)F)c2)cc1 (centres unmarked) [compound 637]
11 | 11 µM | 0.26 µM | OC(CN(Cc1cccc(OC(F)(F)C(F)F)c1)c1cccc(Oc2ccc(F)c(F)c2)c1)C(F)(F)F (centres unmarked) [compound 638]
12 | 5 µM | 0.21 µM | OC(CN(Cc1cccc(OC(F)(F)C(F)F)c1)c1cccc(Oc2ccc(F)cc2F)c1)C(F)(F)F (centres unmarked) [compound 639]
13 | 50 µM | 1.1 µM | OC(CN(Cc1cccc(SC(F)(F)F)c1)c1cc(Oc2ccc(F)cc2)cc(C(F)(F)F)c1)C(F)(F)F (centres unmarked) [compound 642]
14 | 13 µM | 0.52 µM | CC(C)Oc1cccc(CN(CC(O)C(F)(F)F)c2cccc(Oc3ccc(F)cc3)c2)c1 (centres unmarked) [compound 647]
15 | > 100 µM | 4.9 µM | CCCCOc1cccc(CN(CC(O)C(F)(F)F)c2cccc(Oc3ccc(F)cc3)c2)c1 (centres unmarked) [compound 649]
16 | 30 µM | 0.41 µM | CCC(C)Oc1cccc(CN(CC(O)C(F)(F)F)c2cccc(Oc3ccc(F)cc3)c2)c1 (centres unmarked) [compound 650]
17 | 38 µM | 0.91 µM | OC(CN(Cc1cccc(OC2CCCC2)c1)c1cccc(Oc2ccc(F)cc2)c1)C(F)(F)F (centres unmarked) [compound 653]
18 | 24 µM | 1 µM | N#Cc1ccc(Oc2cccc(N(Cc3cccc(OC(F)(F)C(F)F)c3)CC(O)C(F)(F)F)c2)cc1 (centres unmarked) [compound 657]
19 | 30 µM | 0.44 µM | OC(CN(Cc1cccc(OC(F)(F)C(F)F)c1)c1cccc(Oc2ccc(OC(F)(F)F)cc2)c1)C(F)(F)F (centres unmarked) [compound 658]
20 |  | 100 µM | OC(CN(Cc1ccccc1F)Cc1ccccc1C(F)(F)F)C(F)(F)F (centres unmarked) [compound 696]
21 |  | 55 µM | OC(CF)CN(Cc1cccc(OC(F)(F)F)c1)Cc1cccc(OC(F)(F)F)c1 (centres unmarked) [compound 697]
22 |  | 100 µM | COc1cc2c(cc1N(Cc1cccc(OC(F)(F)F)c1)CC(O)C(F)(F)F)oc1ccccc12 (centres unmarked) [compound 698]
23 |  | 4.5 µM | OC(COC(F)(F)C(F)F)CN(Cc1cccc(OC(F)(F)C(F)F)c1)c1cccc(Oc2ccc(F)cc2)c1 (centres unmarked) [compound 701]
24 |  | 35 µM | OC(COC(F)(F)C(F)F)CN(Cc1cccc(OC(F)(F)C(F)F)c1)c1cccc(Oc2ccc(C(F)(F)F)cc2)c1 (centres unmarked) [compound 702]

Row | SMILES | IC50 (CETP [1]) | IC50 (CETP [2])
25 | CC(C)c1ccc(Oc2cccc(N(Cc3cccc(OC(F)(F)C(F)F)c3)CC(O)C(F)(F)F)c2)cc1 (centres unmarked) [compound 250] | 31 µM | 0.44 µM
26 | OC(CN(Cc1cccc(OC(F)(F)C(F)F)c1)c1cccc(Oc2ccc(Cl)c(Cl)c2)c1)C(F)(F)F (centres unmarked) [compound 256] | 7.8 µM | 
27 | CCCc1ccc(Oc2cccc(N(Cc3cccc(OC(F)(F)C(F)F)c3)CC(O)C(F)(F)F)c2)cc1 (centres unmarked) [compound 266] | 21 µM | 
